Measured values as given in US20190183910A1, “ENHANCING DNA REPAIR AND PREVENTING AGING AND ITS CONSEQUENCES IN REPRODUCTIVE AND OTHER CELLS” (NEW YORK MEDICAL COLLEGE, priority 2016, published 2019).
“And” between values parts separate entries of the source, which are not always exact repeats. Identical values can stand only once.

Legend:
[1] = system: oocytes; conditions: ex vivo (Morita et al., 2000; Tilly and Kolesnick, 2007); cited from earlier work
[2] = system: RAD51; assay: qRT-PCR DNA DSB repair gene expression in mouse sperm lysates, RAD51; type: cell-based
Description: (§1) Treatment was performed with genotoxic stress (1 mM H2O2), S1P (200 μM), and S1P with genotoxic stress and control in culture for one hour. Also, the use of an ATM inhibitor was utilized (10 μM) (KU-55593, Abcam) (Li et al., 2014). We assessed DNA damage, apoptosis, and chromatin integrity. We also studied the DNA DSB repair gene expression by qRT-PCR in sperm lysates.
(§2) Sperm pellets previously snap-frozen in PBS were thawed. RNA was extracted using the trizol method (Rio et al., 2010). The quality and quantity of the RNA were measured with NanoDrop 2000 from Thermo Scientific. RNA (2 μg) from each sample was taken for reverse transcription with dTVN and N9 primers and SuperScript III reverse transcriptase, all procured from Invitrogen. The resulting cDNA was used to perform real-time qPCR with SYBR Green on an Applied Biosystems 7900HT Real-Time PCR machine was used. To determine the relative expression of various DNA repair genes in mouse sperm, we used the ΔΔCt method, which makes use of the expression of housekeeping genes. GAPDH was used as housekeeping gene. Primers were procured from Integrated DNA technologies (IDT) (Table 3).

[3] = system: human sperm; assay: Alkaline comet assay on human sperm; type: cell-based; conditions: n=3, mean±SEM
[4] = system: mouse sperm; assay: Neutral comet assay on mouse sperm; type: cell-based; conditions: for percent tail DNA, neutral comet: mouse sperm, n=9, mean±SEM
Description: as §1
Slides were prepared 48 hours prior to experimentation by coating normal glass microscope slides with 500 μl normal melting point agar (NMPA, 0.5% w/v in PBS) solution and left to dry at room temperature for no less than 48 hours. Once samples were obtained, 10 μl of mouse sperm suspension was mixed with 90 μl of 0.5% low melting point agar (LMPA). Then, this 100 μl solution was added to the NMPA-coated slides. Coverslips were added and slides were placed on a metallic tray on ice and in the dark for 5 minutes. The cover slips were then removed and another layer of LMPA was added. Cover slips were subsequently replaced before the LMPA hardened. Slides were then kept in the dark on ice again for another 5 minutes. After ten minutes, the cover slips were removed and slides were placed in staining jars containing ice cold lysing solution (2.5 M NaCl, 100 mM EDTA, sodium N-laurylsacrosinate [SLS]. [1% w/v] and 10 mM Trizma base pH10, and 1% Triton-X-100 and 10% DMSO [immediately adding before use]) for 1 hour at 4° C. in a dark place.
After this lysis step, the slides were washed three times for 5 minutes with the cold electrophoresis buffer (0.089 M Tris base, 0.089 M boric acid and 2 mM EDTA [pH 8.3]), and then placed flatly in the electrophoresis tank face up for 30 minutes. This incubation period was used to achieve the unwinding of the DNA. Electrophoresis was then performed at 18 V for 60 minutes. After this, slides were washed twice in PBS for 5 minutes each. Before analysis could occur, the sperm within the slides needed to be fixed by two 10 minute washes in ethanol, and then air drying at room temperature. Ethidium bromide (50 μl at 10 μg/ml in water) was then added on the slide, and sealed with a cover slip. Slides were kept moist, wrapped in aluminum foil to prevent light exposure, and stored at 4° C. until analysis (Smart et al., 2008).
Slides from both alkaline and neutral comets were imaged by fluorescence microscopy using a Nikon OPTIPHOT microscope. ImageJ was used for comet assay analysis, which calculated tail length, tail moment, and % of DNA in the tail. […] The comets were “on scale” for the calculations to be correct (the brightest pixels of interest were below 255 on an 8-bit scale). […] To analyze the slides, an oval around the sperm head was drawn and calculated and then an oval around the sperm tail was drawn and calculated. […] It was calculated as the Pythagorean distance between two points. […]

[5] = system: ATM; assay: qRT-PCR DNA DSB repair gene expression in mouse sperm lysates, ATM; type: cell-based
Description: as §1, §2

[6] = system: human sperm; assay: Neutral comet assay on human sperm; type: cell-based
[7] = S1P treatment, no ATM inhibitor
[8] = S1P with genotoxic stress, with ATM inhibitor, n=8, mean±SEM
[9] = S1P with H2O2, without ATM inhibitor

## CCCCCCCCCCCCC/C=C/[C@@H](O)[C@@H](N)COP(=O)(O)O [S1P, sphingosine 1 phosphate]
[1]
  ceramide induced apoptosis in oocytes: block ceramide induced apoptosis
[2]; [7]
  RAD51 expression (qRT-PCR): no significant difference
[2]; [8]
  RAD51 expression (qRT-PCR): 0.015±0.056
[3]; S1P with H2O2, with ATM inhibitor
  percent tail DNA, alkaline comet: 26.1±1.19%
[3]; [9]
  percent tail DNA, alkaline comet: 13.2±0.51% and 13.2±1.25%
[4]; S1P-treated mouse sperm with ATM inhibitor
  DNA damage, neutral comet: no significant difference
[4]; S1P alone, without ATM inhibitor
  percent tail DNA, neutral comet: 18.5±0.59%
[4]; [9]
  percent tail DNA, neutral comet: 18.8±0.73%
[5]; [7]
  ATM expression (qRT-PCR): no significant difference
[5]; [8]
  ATM gene expression (qRT-PCR): 0.042±0.011
[6]; S1P-treated human sperm with ATM inhibitor
  DNA damage, neutral comet: no significant difference
[6]; S1P-treated human sperm without ATM inhibitor
  DNA damage, neutral comet: no significant difference
